Data on three substances can be found in patent publication US20030215788A1, “Cysteine thiol-protected peptides for use in immunoassays” (priority 1989, published 2003).

Non-standard residues stand in square brackets, D forms with d. No end group written: not given here. Cys∗ = not defined here

Common to all, as to format: binding, human
For one experiment, the system named is Antibodies to HTLV-I. Nature of the experiment: HTLV-I peptides on latex microparticles tested for reactivity with control sera. To be noted: Serum Sample 40359, HTLV-I EIA positive control, undiluted; 50 μg peptide/5 mg beads/550 μl.
Experiment [1] deals with antibodies to HTLV-I and/or HTLV-II. Nature of the experiment: membrane concentration immunoassay with peptide 121-1GC1 on suspected HTLV-I/II sera. To be noted: for Reactivity with deprotected peptide (color grade): 80 μg peptide/5 mg bead/550 μl. The procedure:
Serum or plasma samples (40 μl) were diluted 1:10 in dilution buffer (10% heat inactivated normal goat serum, 1% dextran sulfate, 0.2% Tween 20, 2.5% nonfat dry milk, 15 ppm Kathon CG, 0.005% antifoam A, in 20 mM sodium citrate buffer, pH 7.4). Diluted specimen was added to the surface of the membrane and allowed to absorb completely. After waiting 2 min. from the time of specimen addition, 1 ml of wash buffer (0.01M Tris-buffered saline, pH 6.0, 0.05M NaCl, 0.005M MgCl2, 0.1% sodium azide, 10 μg/ml nitro blue tetrazolium, 0.5M potassium thiocyanate) was added and allowed to completely absorb through the membrane. About 0.150 ml (3 drops) of goat anti-human Ig-alkaline phosphatase conjugate diluted in 10 mM phosphate buffered saline, pH 7.4, 0.2% goat gamma globulin, 1% bovine serum albumin, 1 mM MgCl2, 0.1 mM ZnCl2 was added to the membrane and allowed to absorb completely. The membrane was washed twice as above (2 ml) and about 0.150 ml (3 drops) of substrate (1M 2-amino-2-methyl-1-propanol, pH 10.3, 5 mg/ml 3-indoxyl phosphate) was added and allowed to absorb completely. After about 5 min. about 1 ml of 0.5M EDTA, pH 7.4, was passed through the membrane to stop the reaction. After the stop solution was completely absorbed the units were read visually or semi-quantitatively by reflectance.
A wide variety of positive, negative, EIA positive/western blot a typical and immune sensitized specimens have been tested with the preferred peptide 39 analog, peptide 39-GC, as the test antigen.
Results of assays with peptide 121-1GC1 were compared to those obtained with other HTLV-I/II tests, such as the polymerase chain reaction (PCR), radioimmunoprecipitation (RIP), Western blot (WB), and viral lysate EIAS. The procedure as described in Example II was used for peptide 121-1GC1, except that two drops of samples were used and the conjugate was used at a two-fold higher concentration. The assays were performed with 10 serum samples suspected of containing antibodies to HTLV-I and/or HTLV-II. The PCR assay for HTLV-II was performed generally according to PCR Technology, Principles and Applications for DNA Amplification, ed. H. A. Ehrlich, Stockton Press, N.Y. (1989), incorporated herein by reference.
In other experiments, screening of the HTLV-I peptide in a variety of forms against a serum panel of suspected HTLV-I/II positive individuals yielded inconclusive results when compared to results obtained by RIP, Western blot, and commercially available HTLV-I EIA assays.

A further experiment concerns Antibodies to HIV-2. The experiment can be described thus: EIA of dilutional series of HIV-2 positive sera. The procedure:
Alternative methods of testing immunologic cross-reactivity were also used. In one such method L5 Peptides 39 and 39GC were tested by ELISA as previously described in U.S. Pat. No. 4,629,783. Briefly, stock solutions of peptides 39 and 39-GC were prepared in 6M Gu-HCl. Working dilutions of 20 µg/ml and 6 μg/ml respectively were prepared by dilution of stock solution 0 with 0.05M carbonate/bicarbonate buffer, pH 9.5. Wells of microtiter plates were filled with 100 μl of the working dilution of the peptides and allowed to stand overnight at room temperature. Coating solution was removed and 300 μl of blocking solution supra containing 0.5M ethanolamine was added for 1 hr. at room temperature. Blocking solution was removed and the plates were used immediately or allowed to dry and stored for later use.
Plasma samples were diluted (See Table 1) in sample dilution buffer (above) and 100 μl was added to individual wells. Samples were incubated for 30 min. at 37° C., then removed and the wells were washed six times with 0.15M NaCl, 0.05% Tween 20. One hundred microliters of goat antihuman Ig-horseradish peroxidase conjugate diluted in citrate buffer, pH 7.0, 1% normal goat serum was added to each well for 30 min at 37° C. prior to washing six times as above. The ELISA assay was developed by adding 100 μl/well of substrate solution (80 μg/ml tetramethyl benzidine, 0.0015% hydrogen peroxide in citrate/phosphate buffer, pH 6.0) for 30 min. at room temperature. Reactions were stopped with the addition of 100 μl of H2SO4 per well, and the ratio of the optical density at 450 nm to 630 nm was determined by an automated ELISA reader. The cutoff value for a positive result was set at 0.225 Absorbance Units above the average absorbance obtained for three known negative samples.
The immunoreactivity of HIV-2 peptides synthesized with protected cysteine thiol groups was determined. […] EIAs were performed as described above using viral lysates of HIV-1 and HIV-2 and peptides 39GC (HIV-1) and 41-2-3GC. Reactivity was determined for dilutions of two HIV-2 positive sera, F504282, obtained from a patient in New York, and “GOM,” provided by the Institut Pasteur.
The assays were EIAs performed generally as described above with varying dilutions of HIV-2 positive serum specimens.

Consider “H-QNRRGLDLLFWEQGGLC*KALQEQC*-NH2 (chain 1 H-QNRRGLDLLFWEQGGL[Cys∗]; chain 2 KALQEQ[Cys∗]-NH2; not fully specified; reading uncertain; also: modified residues) [Peptide 121-1G1]”, for which the “Reactivity to Antibodies to HTLV-I (color grade)” value in the experiment with Antibodies to HTLV-I is recorded as “trace”.
For the substance “H-CGG-QNRRGLDLLFWEQGGLC*KALQEQC*-NH2 (chain 1 H-CGGQNRRGLDLLFWEQGGLC; chain 2 KALQEQC-NH2; not fully specified; cysteine pairing not given here) [Peptide 121-1GC1]”, the “Reactivity with deprotected peptide (color grade)” value in experiment [1] (Sample No. 39266), in experiment [1] (Sample No. 89232), in experiment [1] (Sample No. 89379), in experiment [1] (Sample No. 89430) and in experiment [1] (Sample No. 89442) was “trace” in each case. For the same substance, in experiment [1] (compared with RIP, Western blot and commercial HTLV-I EIA), the “result on serum panel of suspected HTLV-I/II positive individuals” value is “Some samples which were purportedly positive by certain of the tests were negative”.
On to “Cys-Gly-Gly-Gln-Asp-Gln-Ala-Arg-Leu-Asn-Ser-Trp-Gly-Cys*-Ala-Phe-Arg-Gln-Val-Cys*-NH2 [Peptide 41-2-3GC]”, for which the “Reactivity in EIA” value is on record as 3.000 in the experiment with Antibodies to HIV-2 (HIV-2 positive serum F504282 (A), 1:5); 3.000 with Antibodies to HIV-2 (HIV-2 positive serum F504282 (A), 1:10); 3.000 with Antibodies to HIV-2 (HIV-2 positive serum F504282 (A), 1:20); 2.828 with Antibodies to HIV-2 (HIV-2 positive serum F504282 (A), 1:40); 2.107 with Antibodies to HIV-2 (HIV-2 positive serum F504282 (A), 1:80); 1.441 in the experiment on Antibodies to HIV-2 (HIV-2 positive serum F504282 (A), 1:160). Also, the “Reactivity in EIA” value with Antibodies to HIV-2 (HIV-2 positive serum F504282 (A), 1:320) turned out to be 0.941; with Antibodies to HIV-2 (HIV-2 positive serum F504282 (A), 1:640), 0.588; with Antibodies to HIV-2 (HIV-2 positive serum F504282 (A), 1:1280) it was 0.302; with Antibodies to HIV-2 (HIV-2 positive serum F504282 (A), 1:2560) it was 0.180; in the experiment on Antibodies to HIV-2 (HIV-2 positive serum F504282 (A), Neat), 3.000; with Antibodies to HIV-2 (HIV-2 positive serum GOM (B), 1:2), 3.000. The “Reactivity in EIA” value with Antibodies to HIV-2 (HIV-2 positive serum GOM (B), 1:4) is listed as 3.000; in the experiment with Antibodies to HIV-2 (HIV-2 positive serum GOM (B), 1:8), 3.000; with Antibodies to HIV-2 (HIV-2 positive serum GOM (B), 1:16), 3.000; in the experiment on Antibodies to HIV-2 (HIV-2 positive serum GOM (B), 1:32), 3.000; with Antibodies to HIV-2 (HIV-2 positive serum GOM (B), 1:64), 2.524; with Antibodies to HIV-2 (HIV-2 positive serum GOM (B), 1:128), 2.202. The “Reactivity in EIA” value in the experiment with Antibodies to HIV-2 (HIV-2 positive serum GOM (B), 1:256) amounted to 1.452; in the experiment with Antibodies to HIV-2 (HIV-2 positive serum GOM (B), 1:512), 0.811; in the experiment with Antibodies to HIV-2 (HIV-2 positive serum GOM (B), 1:1024), 0.571; in the experiment on Antibodies to HIV-2 (HIV-2 serum PIN, 1:2), 3.000; in the experiment with Antibodies to HIV-2 (HIV-2 serum PIN, 1:4) it was 3.000; with Antibodies to HIV-2 (HIV-2 serum PIN, 1:8) it was 2.596. For the same substance, the “Reactivity in EIA” value with Antibodies to HIV-2 (HIV-2 serum PIN, 1:16) is 1.940; in the experiment on Antibodies to HIV-2 (HIV-2 serum PIN, 1:32) it was 1.209; with Antibodies to HIV-2 (HIV-2 serum PIN, 1:64), 0.582; in the experiment with Antibodies to HIV-2 (HIV-2 serum PIN, 1:128), 0.368; in the experiment on Antibodies to HIV-2 (HIV-2 serum PIN, 1:256), 0.186; with Antibodies to HIV-2 (HIV-2 serum S, 1:2) it was 3.000. Besides, the “Reactivity in EIA” value in the experiment with Antibodies to HIV-2 (HIV-2 serum S, 1:4) turned out to be 3.000; in the experiment on Antibodies to HIV-2 (HIV-2 serum S, 1:8) it was 3.000; in the experiment on Antibodies to HIV-2 (HIV-2 serum S, 1:16), 3.000; with Antibodies to HIV-2 (HIV-2 serum S, 1:32), 2.632; in the experiment with Antibodies to HIV-2 (HIV-2 serum S, 1:64) it was 2.155; in the experiment on Antibodies to HIV-2 (HIV-2 serum S, 1:128) it was 1.442. The “Reactivity in EIA” value with Antibodies to HIV-2 (HIV-2 serum S, 1:256) is 0.725; with Antibodies to HIV-2 (HIV-2 serum S, 1:512), 0.516; in the experiment on Antibodies to HIV-2 (HIV-2 serum SAMB, 1:2), 3.000; in the experiment on Antibodies to HIV-2 (HIV-2 serum SAMB, 1:4), 3.000; with Antibodies to HIV-2 (HIV-2 serum SAMB, 1:8), 2.854; in the experiment on Antibodies to HIV-2 (HIV-2 serum SAMB, 1:16), 2.710. Moreover, the “Reactivity in EIA” value is reported as 2.112 with Antibodies to HIV-2 (HIV-2 serum SAMB, 1:32); 1.400 in the experiment on Antibodies to HIV-2 (HIV-2 serum SAMB, 1:64); 0.834 in the experiment on Antibodies to HIV-2 (HIV-2 serum SAMB, 1:128); 0.404 with Antibodies to HIV-2 (HIV-2 serum SAMB, 1:256).
